Test results taken from patent publication US20070299043A1, “Anti-scarring drug combinations and use thereof” (priority 2005, published 2007).
≈ marks a conversion by molar mass, not a printed value. Counter-ions that a name gives are not always drawn. Blank lines part the entries; values can stand above or below the compound they belong to.

Legend:
[1] = system: E. coli UB1005 C498; test: MIC by microtitre broth dilution; format: cell-based; settings: for Minimum inhibitory concentration: Gram−, wt, Mueller Hinton broth, 37° C, 24h
Description: (§1) MIC assays were conducted essentially as described by Amsterdam, D. 1996, “Susceptibility testing of antimicrobials in liquid media”, p. 52-111, in Loman, V., ed. Antibiotics in laboratory medicine, 4th ed. Williams and Wilkins, Baltimore, Md.

[2] = Increase of the potency of an immunosuppressive agent
[3] = system: multiple species of bacteria and fungi; settings: surface drug concentration is to be in excess of this value; cited from earlier work
[4] = system: S. pyogenes C721; test: MIC by microtitre broth dilution; format: cell-based; settings: Gram+, wt; Todd Hewitt broth, 37° C, 24h
Description: as §1

[5] = system: S. epidermidis C621; test: MIC by microtitre broth dilution; format: cell-based; settings: Gram+, wt; Mueller Hinton broth, 37° C, 24h
Description: as §1

[6] = system: P. aeruginosa PAE/K799 H187; test: MIC by microtitre broth dilution; format: cell-based; settings: Gram−, wt; Mueller Hinton broth, 37° C, 24h
Description: as §1

[7] = system: S. aureus ATCC25923 C622; test: MIC by microtitre broth dilution; format: cell-based; settings: Gram+, wt; Mueller Hinton broth, 37° C, 24h
Description: as §1

[8] = system: K. pneumoniae ATCC13883 C238; test: MIC by microtitre broth dilution; format: cell-based; settings: Gram−, wt; Mueller Hinton broth, 37° C, 24h
Description: as §1

[9] = cited from earlier work; for solubility in alcohol/ethanol: alcohol or ethanol
[10] = system: p38, JNK, ERK; test: p38, JNK and ERK activation; format: cell-based
[11] = system: NFAT; test: NFAT activation, translocation and transactivation; format: cell-based
[12] = system: NFkB and AP1; test: NFkB and AP1 activation; format: cell-based
[13] = biological target: T1, glucocorticoid receptor (Homo sapiens, UniProt P04150); test: Glucocorticoid receptor trafficking and GRE reporter plasmid transactivation in T cells; format: cell-based; settings: for potentiation of prednisolone's ability to transactivate a GRE reporter plasmid: T cells
T1 construct: endogenous in cells; host or cells: T cells
T1 sequence (P04150 1-777): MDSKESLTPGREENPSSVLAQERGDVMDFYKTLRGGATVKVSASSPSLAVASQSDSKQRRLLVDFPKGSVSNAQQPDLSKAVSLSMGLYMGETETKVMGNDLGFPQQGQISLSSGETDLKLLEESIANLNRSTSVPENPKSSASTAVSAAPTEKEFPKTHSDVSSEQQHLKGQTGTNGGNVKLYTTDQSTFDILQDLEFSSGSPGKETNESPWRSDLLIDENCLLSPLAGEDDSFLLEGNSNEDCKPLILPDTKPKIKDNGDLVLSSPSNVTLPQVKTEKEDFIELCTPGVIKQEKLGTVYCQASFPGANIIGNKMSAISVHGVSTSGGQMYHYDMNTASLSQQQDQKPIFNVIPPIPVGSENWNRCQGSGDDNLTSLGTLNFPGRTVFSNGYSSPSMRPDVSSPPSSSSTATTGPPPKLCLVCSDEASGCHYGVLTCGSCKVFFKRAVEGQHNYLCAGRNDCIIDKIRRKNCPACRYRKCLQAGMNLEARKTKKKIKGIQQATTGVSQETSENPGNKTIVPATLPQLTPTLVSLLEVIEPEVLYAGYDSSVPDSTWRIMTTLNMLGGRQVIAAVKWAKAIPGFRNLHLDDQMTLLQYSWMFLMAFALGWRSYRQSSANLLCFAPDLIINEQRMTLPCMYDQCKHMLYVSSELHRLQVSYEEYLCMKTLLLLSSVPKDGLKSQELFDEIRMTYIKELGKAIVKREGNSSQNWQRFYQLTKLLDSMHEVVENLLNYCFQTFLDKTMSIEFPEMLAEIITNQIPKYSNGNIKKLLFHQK

[14] = system: carrageenan-induced paw edema; test: Rat carrageenan-induced paw edema model, paw volume; format: in vivo; settings: Amoxapine 2.26 mg/kg, foot pad, T-1 hr; Tmax = 6 hrs; listed as amoxapine (Amox)
Description: A dose-range finding study was performed to determine the anti-inflammatory activity of various ratios of methyl prednisolone acetate and amoxapine in a rat carrageenan-induced paw edema model. […] The molar ratio of methyl prednisolone acetate to amoxapine ranged from 1:1 to 1:300, using total doses of methyl prednisolone acetate of 0.01, 0.03 or 0.1 mg/kg.
The test agent (a combination of methyl prednisolone acetate and amoxapine), vehicle control, or reference agents (methyl prednisolone acetate, amoxapine, or Depo-Medrol®) were administered in the left hind foot pad of rats. After 60 minutes, paw edema was induced by injection of 100 μl of 1% carrageenan in the same foot pad. The paw volume was measured with a water displacement plethysmometer immediately prior to test agent injection (T−1h), at the time of carrageenan injection (T0h), and at T6h. Animals were euthanized by carbon dioxide inhalation. Paw tissue samples were collected and flash frozen in liquid nitrogen. Samples were assayed for TNF-α by enzyme-linked immunoassay (ELISA).

[15] = system: joint swelling; test: Chronic in vivo arthritis model (adjuvant model), joint swelling; settings: component alone (prednisolone at reduced dose)
[16] = system: LPS-induced TNF-α production; test: Acute in vivo model of inflammation (LPS-induced TNF-α release); settings: component alone (prednisolone at reduced dose)
[17] = system: mast cells and eosinophil activation
[18] = 200 mg/day orally; cited from earlier work

SMILES: Sc1ncc2[nH]cnc2n1 [2-mercaptopurine]
- Minimum inhibitory concentration [1]: N

SMILES: CCN(CC)C(C)CN1c2ccccc2Sc2ccccc21 (stereo not drawn) [Ethopropazine, ethopropazine]
- potency of an immunosuppressive agent [2]: increases the potency

SMILES: O=c1[nH]cc(F)c(=O)[nH]1 [5-fluorouracil, 5-Fluorouracil]
- MIC ([1]; Escherichia coli, UB1005C498, 24 h, read-out: Minimum inhibitory concentration): 1 µM (≈ 0.13 µg/mL)
- concentration known to be lethal to multiple species of bacteria and fungi [3]: > 10^−4 M

SMILES: COc1cccc2c1C(=O)c1c(O)c3c(c(O)c1C2=O)C[C@@](O)(C(=O)CO)C[C@@H]3O[C@H]1C[C@H](N)[C@H](O)[C@H](C)O1 [doxorubicin, Doxorubicin]
- Minimum inhibitory concentration [4]: 10^−7 Molar
- Minimum inhibitory concentration [5]: 10^−6 Molar
- Minimum inhibitory concentration [6]: 10^−5 Molar
- Minimum inhibitory concentration [7]: 10^−5 Molar
- Minimum inhibitory concentration [1]: 10^−4 Molar
- Minimum inhibitory concentration [8]: 10^−6 Molar
- concentration known to be lethal to multiple species of bacteria and fungi [3]: > 10^−4 M

SMILES: Nc1ncnc2c1ccn2[C@@H]1O[C@H](CO)[C@@H](O)[C@H]1O [tubercidin]
- Minimum inhibitory concentration [4]: N
- Minimum inhibitory concentration [5]: N
- Minimum inhibitory concentration [6]: N
- Minimum inhibitory concentration [7]: N
- Minimum inhibitory concentration [1]: N
- Minimum inhibitory concentration [8]: N

SMILES: NC(=O)c1ncn([C@@H]2O[C@H](CO)[C@@H](O)[C@H]2O)n1 [Ribavirin, ribavirin]
- solubility in alcohol/ethanol [9]: only slightly soluble in alcohol

- promotion of glucocorticoid receptor trafficking [13]: does not promote
SMILES: Fc1ccc(C2CCNCC2COc2ccc3c(c2)OCO3)cc1 (single isomer, unassigned; (-)) [paroxetine, (−)-trans-4 R-(4′-fluorophenyl)-3 S-[(3′,4′-methylenedioxyphenoxy)methyl]piperidine hydrochloride hemihydrate]
- ERK activation [10]: but not ERK activation
- p38 and JNK activation [10]: inhibition
- NFAT activation, translocation and transactivation [11]: represses
- NFkB and AP1 activation [12]: inhibits
- potentiation of prednisolone's ability to transactivate a GRE reporter plasmid [13]: does not promote glucocorticoid receptor trafficking or potentiate

SMILES: CN(C)C(=O)C(CCN1CCC(O)(c2ccc(Cl)cc2)CC1)(c1ccccc1)c1ccccc1 [Loperamide]
- potency of an immunosuppressive agent [2]: increase the potency

- promotion of glucocorticoid receptor trafficking [13]: does not promote
- potentiation of prednisolone's ability to transactivate a GRE reporter plasmid [13]: does not potentiate
SMILES: Clc1ccc2c(c1)C(N1CCNCC1)=Nc1ccccc1O2 [amoxapine]
- Edema ± SEM [14]: not significantly different from the vehicle treatment
- ERK activation [10]: unaffected
- p38 and JNK activation [10]: Inhibition
- effect of the individual component alone [15]: modest or no benefit
- NFAT activation, translocation and transactivation [11]: block
- NFkB and AP1 activation [12]: partially inhibits
- effect of the individual component alone [16]: modest or no benefit

SMILES: CNCCCC12CCC(c3ccccc31)c1ccccc12 [maprotiline]
- potency of an immunosuppressive agent [2]: increases the potency

SMILES: CCOC(=O)N1CCC(=C2c3ccc(Cl)cc3CCc3cccnc32)CC1 [loratadine]
- mast cells and eosinophil activation [17]: inhibits

SMILES: Sc1ncnc2nc[nH]c12 [6-mercaptopurine]
- Minimum inhibitory concentration [1]: N

SMILES: Oc1cc(Cl)ccc1Oc1ccc(Cl)cc1Cl [triclosan]
- potency of an immunosuppressive agent [2]: increases the potency

SMILES: N.N.[Cl][Pt][Cl] [cisplatin]
- Minimum inhibitory concentration [4]: N
- Minimum inhibitory concentration [5]: N
- Minimum inhibitory concentration [6]: 10^−4 Molar
- Minimum inhibitory concentration [7]: N
- Minimum inhibitory concentration [1]: N
- Minimum inhibitory concentration [8]: N

SMILES: O=C1c2c(O)ccc(O)c2C(=O)c2c(NCCNCCO)ccc(NCCNCCO)c21 [mitoxantrone]
- Minimum inhibitory concentration [1]: 10^−5 Molar
- concentration known to be lethal to multiple species of bacteria and fungi [3]: > 10^−5 M

SMILES: CN(Cc1cnc2nc(N)nc(N)c2n1)c1ccc(C(=O)N[C@@H](CCC(=O)O)C(=O)O)cc1 [methotrexate]
- Minimum inhibitory concentration [4]: 10^−6 Molar
- Minimum inhibitory concentration [5]: N
- Minimum inhibitory concentration [6]: N
- Minimum inhibitory concentration [7]: 10^−5 Molar
- Minimum inhibitory concentration [1]: N
- Minimum inhibitory concentration [8]: 10^−6 Molar

SMILES: CC[C@@]1(O)C(=O)OCc2c1cc1n(c2=O)Cc2cc3ccccc3nc2-1 [camptothecin]
- Minimum inhibitory concentration [4]: N
- Minimum inhibitory concentration [6]: N
- Minimum inhibitory concentration [7]: N
- Minimum inhibitory concentration [1]: N
- Minimum inhibitory concentration [8]: N

SMILES: NC(=O)NO [hydroxyurea]
- Minimum inhibitory concentration [4]: 10^−4 Molar
- Minimum inhibitory concentration [5]: N
- Minimum inhibitory concentration [6]: 10^−4 Molar
- Minimum inhibitory concentration [7]: N
- Minimum inhibitory concentration [1]: N
- Minimum inhibitory concentration [8]: N

SMILES: CC(=O)N1CCN(c2ccc(OCC3COC(Cn4ccnc4)(c4ccc(Cl)cc4Cl)O3)cc2)CC1 (stereo not drawn) [ketoconazole]
- solubility in water [9]: essentially insoluble in water
- serum concentration [18]: about 3.2 micrograms

SMILES: COc1cc([C@@H]2c3cc4c(cc3[C@@H](O[C@@H]3O[C@@H]5CO[C@@H](C)O[C@H]5[C@H](O)[C@H]3O)[C@H]3COC(=O)[C@H]23)OCO4)cc(OC)c1O [etoposide]
- Minimum inhibitory concentration [1]: N

SMILES: Nc1ccc(/N=N/c2ccccc2)c(N)n1 [Phenazopyridine base, phenazopyridine]
- solubility in alcohol/ethanol [9]: slightly soluble in water and alcohol
- solubility in water [9]: slightly soluble in water and alcohol

SMILES: Nc1ccn([C@@H]2O[C@H](CO)[C@@H](O)[C@@H]2O)c(=O)n1 [Cytarabine, cytarabine]
- Minimum inhibitory concentration [1]: N
